Results from patent publication US8394786B2, “Quinazoline derivatives” (Janssen Pharmaceutica N.V., priority 2003, dated 2013).
Blank lines part the entries; values can stand above or below the molecule they belong to.

Assays:
[1] = test system: SKOV3 cells; assay: Serum starved proliferation assay on the ovarian carcinoma SKOV3 cells (C3); type: cell-based; settings: Homo sapiens, SK-OV-3, 72 h, EGF stimulated (100 ng/ml, 72 hours, serum free) or 72 hours with compounds; MTT cell viability assay; read-out: SKOV3 cell (C3): pIC50 (converted)
Outline: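 MTT viability read-out in SKOV3 cells after a 24 h pre-incubation in 10% FCS, in one of two formats. EGF-stimulated version: serum-free compound exposure followed by 100 ng/ml EGF (final) for 72 h at 37 °C, 5% CO2. Otherwise, compound alone for 72 h.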

[2] = target: EGFR (Homo sapiens, UniProt P00533); assay: In vitro inhibition of EGFR, Flash Plate or glass-fiber filter technology (C2); type: biochemical; design: 0.5 μg EGFR-kinase domain/well; settings: EGFR-kinase domain, 5.0 μM unlabeled ATP, read-out: Kinase activity.(C2): pIC50 (converted)
Sequence of EGFR (P00533 712-979 limits assumed): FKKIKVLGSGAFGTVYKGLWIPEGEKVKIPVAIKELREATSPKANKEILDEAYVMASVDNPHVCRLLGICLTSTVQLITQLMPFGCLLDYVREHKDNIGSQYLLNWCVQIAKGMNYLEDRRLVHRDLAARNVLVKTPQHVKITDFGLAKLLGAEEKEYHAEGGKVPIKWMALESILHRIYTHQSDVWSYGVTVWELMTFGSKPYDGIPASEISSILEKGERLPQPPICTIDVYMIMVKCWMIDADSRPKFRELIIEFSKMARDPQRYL
Outline: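 Two radiometric formats were used, each with 5.0 μM unlabeled ATP, [33P]ATP, 0.5 μg EGFR kinase domain and compounds from 1·10^−10 to 1·10^−6 M. Glass-fiber filter: 25° C for 10 min, pH 7.5, Mn2+/Mg2+, acid-stopped, phosphorimager read. Streptavidin Flash Plate: biotinylated poly(GT), pH 8.0, 30° C for 60 min.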

Compound: COc1cc2ncnc3c2cc1OCCNC(=O)C(C)(C)NC(=O)Cc1ccc(Cl)cc1N3 [Compound 65, 4,6-ethanediylidene-8H-pyrimido[4,5-b][6,1,9,12]benzoxatriazacyclohexadecine-11,14-dione, 18-chloro-9,10,12,13,15,20-hexahydro-21-methoxy-12,12-dimethyl-]
IC50 [1]: 20 nM
melting point: 285 °C
IC50 [2]: 12.6 nM

Compound: COc1cc2ncnc3c2cc1OCCNC(=O)C1CCN(CC1)Cc1ccc(Cl)cc1N3 [Compound 87, 8H-4,6-ethanediylidene-12,15-ethanopyrimido[4,5-b][6,1,9,14]benzoxatriazacycloheptadecin-11(12H)-one, 19-chloro-9,10,13,14,16,21-hexahydro-24-methoxy-]
melting point: 246.6 to 248.2 °C

Compound: COc1cc2ncnc3c2cc1OCCNC(=O)C(C)N(C)Cc1ccc(Cl)cc1N3 (stereo not shown) [Compound 89, 4,6-ethanediylidenepyrimido[4,5-b][6,1,9,12]benzoxatriazacyclopentadecin-11(8H)-one, 17-chloro-9,10,12,13,14,19-hexahydro-20-methoxy-12,13-dimethyl-]
melting point: 265 °C

Compound: CCN1CC(=O)NCCOc2cc3c(ncnc3cc2OC)Nc2cc(Cl)ccc2C1 [Compound 90, 4,6-ethanediylidenepyrimido[4,5-b][6,1,9,12]benzoxatriazacyclopentadecin-11(8H)-one, 17-chloro-13-ethyl-9,10,12,13,14,19-hexahydro-20-methoxy-]
melting point: 261.1 to 262 °C

Compound: COc1cc2ncnc3c2cc1OCCCNC(=O)C1CCCN(Cc2ccc(Cl)cc2N3)C1 (stereo not shown) [Compound 95, 12H-4,6-ethanediylidene-13,17-methanopyrimido[4,5-b][6,1,10,16]benzoxatriazacyclononadecin-12-one, 21-chloro-8,9,10,11,13,14,15,16,18,23-decahydro-25-methoxy-]
melting point: 240.1 to 242.8 °C

Compound: COc1cc2ncnc3c2cc1OCCCC(=O)NCC(=O)NCc1ccc(Cl)cc1N3 [Compound 153, 4,6-ethenopyrimido[4,5-b][6,1,11,14]benzoxatriazacycloheptadecine-11,14(8H,15H)-dione, 19-chloro-9,10,12,13,16,21-hexahydro-22-methoxy-]
IC50 [1]: 794 nM
IC50 [2]: 15.8 nM

Compound: COc1cc2ncnc3c2cc1OCCCC(=O)NCCCC(=O)NCc1ccc(Cl)cc1N3 [Compound 154, 4,6-ethenopyrimido[4,5-b][6,1,11,16]benzoxatriazacyclononadecine-11,16(8H,17H)-dione, 21-chloro-9,10,12,13,14,15,18,23-octahydro-24-methoxy-]
IC50 [1]: 2510 nM
IC50 [2]: 39.8 nM

Compound: COc1cc2ncnc3c2cc1OCC(=O)NCC(=O)NCCc1ccc(Cl)cc1N3 [Compound 160, 4,6-ethanediylidene-8H-pyrimido[4,5-b][6,1,9,12]benzoxatriazacyclohexadecine-9,12-dione, 18-chloro-10,11,13,14,15,20-hexahydro-21-methoxy-]
IC50 [1]: 631 nM
IC50 [2]: 63.1 nM

Second part, the molecule after the results:

melting point: 129.8 to 132.8 °C
Compound: COc1cc2ncnc3c2cc1OCCCNC(=O)C1CCCN1Cc1ccc(Cl)cc1N3 (stereo not shown) [Compound 77, 4,6-ethanediylidene-12H-pyrimido[4,5-b]pyrrolo[2,1-l][6,1,10,13]benzoxatriazacyclohexadecin-12-one, 20-chloro-8,9,10,11,12a,13,14,15,17,22-decahydro-23-methoxy-]

melting point: 231.9 to 232.8 °C
Compound: COc1cc2ncnc3c2cc1OCCCNC(=O)C1CCCN1Cc1ccc(Cl)cc1N3 (stereo not shown) [Compound 84, 4,6-ethanediylidene-12H-pyrimido[4,5-b]pyrrolo[2,1-l][6,1,10,13]benzoxatriazacyclohexadecin-12-one, 20-chloro-8,9,10,11,12a,13,14,15,17,22-decahydro-23-methoxy-]

melting point: 276.3 to 277.4 °C
Compound: COc1cc2ncnc3c2cc1OCCNC(=O)C(CO)NCc1ccc(Cl)cc1N3 (stereo not shown) [Compound 91, 4,6-ethanediylidenepyrimido[4,5-b][6,1,9,12]benzoxatriazacyclopentadecin-11(8H)-one, 17-chloro-9,10,12,13,14,19-hexahydro-12-(hydroxymethyl)-20-methoxy-]

melting point: 286.8 to 287.6 °C
Compound: COc1cc2ncnc3c2cc1OCCCNC(=O)CN1CCN(CC1)Cc1ccc(Cl)cc1N3 [Compound 93, 4,6-ethanediylidene-14,17-ethanopyrimido[4,5-b][6,1,10,13,16]benzoxatetraazacyclononadecin-12(13H)-one, 21-chloro-8,9,10,11,15,16,18,23-octahydro-26-methoxy-]

IC50 [1]: 1000 nM
IC50 [2]: 316 nM
Compound: COc1cc2ncnc3c2cc1OCCCC(=O)NCCC(=O)NCc1ccc(Cl)cc1N3 [Compound 155, 4,6-etheno-8H-pyrimido[4,5-b][6,1,11,15]benzoxatriazacyclooctadecine-11,15(12H,16H)-dione, 20-chloro-9,10,13,14,17,22-hexahydro-23-methoxy-]

IC50 [1]: 10000 nM
IC50 [2]: 5010 nM
Compound: COc1cc2ncnc3c2cc1OCC(=O)NCCCC(=O)NCc1ccccc1N3 [Compound 158, 4,6-ethanediylidenepyrimido[4,5-b][6,1,9,14]benzoxatriazacycloheptadecine-9,14(8H,15H)-dione, 10,11,12,13,16,21-hexahydro-22-methoxy-]

IC50 [1]: 2000 nM
IC50 [2]: 316 nM
Compound: COc1cc2ncnc3c2cc1OCC(=O)N(C)CC(=O)NCc1ccc(Cl)cc1N3 [Compound 159, 4,6-ethanediylidenepyrimido[4,5-b][6,1,9,12]benzoxatriazacyclopentadecine-9,12(8H,13H)-dione, 17-chloro-10,11,14,19-tetrahydro-20-methoxy-10-methyl-]

IC50 [1]: 1260 nM
IC50 [2]: 63.1 nM
Compound: COc1cc2ncnc3c2cc1OCC(=O)NCCCC(=O)NCCc1ccc(Cl)cc1N3 [Compound 161, 4,6-ethanediylidene-8H-pyrimido[4,5-b][6,1,9,14]benzoxatriazacyclooctadecine-9,14-dione, 20-chloro-10,11,12,13,15,16,17,22-octahydro-23-methoxy-]

IC50 [1]: 50.1 nM
IC50 [2]: 158 nM
Compound: COc1cc2ncnc3c2cc1OCCCCC(=O)NCCC(=O)NCc1ccc(Cl)cc1N3 [Compound 162, 4,6-ethanediylidenepyrimido[4,5-b][6,1,12,16]benzoxatriazacyclononadecine-12,16(13H,17H)-dione, 21-chloro-8,9,10,11,14,15,18,23-octahydro-24-methoxy-]

IC50 [1]: 398 nM
IC50 [2]: 100 nM
Compound: COc1cc2ncnc3c2cc1OCCCCC(=O)NCCCC(=O)NCc1ccc(Cl)cc1N3 [Compound 163, 4,6-ethanediylidene-8H-pyrimido[4,5-b][6,1,12,17]benzoxatriazacycloeicosine-12,17(18H)-dione, 22-chloro-9,10,11,13,14,15,16,19,24-nonahydro-25-methoxy-]

IC50 [1]: 158 nM
IC50 [2]: 501 nM
Compound: COc1cc2ncnc3c2cc1OCC(=O)N(C)CC(=O)NCCc1ccc(Cl)cc1N3 [Compound 164, 4,6-ethanediylidene-8H-pyrimido[4,5-b][6,1,9,12]benzoxatriazacyclohexadecine-9,12-dione, 18-chloro-10,11,13,14,15,20-hexahydro-21-methoxy-10-methyl-]
